Data published in US20230310432A1 (JULIUS-MAXIMILIANS-UNIVERSITÄT WÜRZBURG, priority 2017, published 2023).
Like-named read-outs stand apart in the source and are kept apart here.

Legend:
[1] = test system: CD8+ T cells expressing a CD19 CAR with 4-1BB costimulation; assay: CFSE proliferation assay, co-culture with K562/CD19; assay type: cell-based, human; details: 72 h
[2] = test system: CD8+ T cells expressing a CD19 CAR with 4-1BB costimulation; assay: Bioluminescence-based cytotoxicity assay, K562/CD19 target cells; assay type: cell-based, human
Procedure: Cytotoxicity: Target cells were stably transduced with ffluc_GFP and incubated in triplicate wells at 1×10^4 cells/well with effector T cells at an effector to target (E:T) ratio of 5:1. D-luciferin substrate (Biosynth, Staad, Switzerland) was added to the co-culture to a final concentration of 0.15 mg/ml and the decrease in luminescence signal in wells that contained target cells and T-cells was measured using a luminometer (Tecan, Mannedorf, Switzerland). Specific lysis was calculated using the standard formula.
The inventors prepared CD8+ CAR-T cell lines from n=3 healthy donors. In each of the T-cell lines, the inventors enriched CAR-expressing T cells to >90% purity using the EGFRt-transduction marker. The inventors analyzed cytolytic activity of CD8^+ CAR-T cells in a bioluminescence-based cytotoxicity assay using K562 that the inventors had transduced with either CD19 (for testing CD19 CAR-T cells) or ROR1 (for testing ROR1 CAR-T cells) as target cells. Dasatinib was added to the assay medium at the beginning of the assay.
The inventors prepared CD8^+ CAR-T cell lines from n=3 healthy donors. In each of the T-cell lines, the inventors enriched CAR-expressing T cells to >90% purity using the EGFRt-transduction marker. The inventors analyzed cytolytic activity of CD8^+ CAR-T cells in a bioluminescence-based cytotoxicity assay using K562 target cells that the inventors had transduced with CD19.
The CAR-T cell cytolytic activity was analyzed at 1-hour intervals for 10 hours.
The inventors analyzed cytolytic activity of CD8+ CAR-T cells in a bioluminescence-based cytotoxicity assay.
The inventors prepared CD8^+ CD19 CAR-T cell lines with a 4-1BB costimulatory domain from one healthy donor. In the T-cell line, the inventors enriched CAR expressing T cells to >90% purity using the EGFRt-transduction marker. The inventors analyzed cytolytic activity of CD8^+ CAR-T cells in a 4-hour bioluminescence-based cytotoxicity assay using K562 that the inventors had transduced with CD19 as target cells to assess the influence of a panel of Src-kinase inhibitors on the cytolytic function of CAR-T cells. Src-kinase inhibitors were added to the assay medium at the beginning of the assay over a 4-log concentration range.

[3] = cited from earlier work
[4] = test system: CD19 CAR/4-1BB-T cells; assay: Frequency of human T cells in bone marrow and peripheral blood by flow cytometry (Example 6); assay type: in vivo, NSG mice; details: CAR/treated
Procedure: (§1) The Institutional Animal Care and Use Committee of UKW approved all mouse experiments. NOD.Cg-Prkdc^scidIl2rg^tm1wjl/SzJ (NSG) mice (female, 6-8 week old) were purchased from Charles River (Sulzfeld, Germany). Mice were inoculated with 1×10^6 Raji/ffluc_GFP tumor cells via tail vein injection (i.v.). Mice were treated with 5×10^6 CAR-modified or control untransduced T-cells (CD4:CD8 ratio=1:1) via tail vein injection (i.v.). […] Tumor burden and distribution was analyzed by serial bioluminescence imaging on an IVIS Lumina imager (Perkin Elmer, Baesweiler, Germany): mice received i.p. injections of 0.3 mg/g luciferin and images were acquired 10 minutes after luciferin injection in small binning mode at an acquisition time of 1 s to 1 min to obtain unsaturated images. Data were analyzed using LivingImage Software (Caliper) and the average radiance (or photon flux) analyzed in regions of interest that encompassed the entire body of each individual mouse. Mice were sacrificed at the end of the experiment and human T cells in bone marrow, peripheral blood and spleen were analyzed by flow cytometry. The presence of (human) cytokines in serum was measured using multiplex cytokine analysis.
In brief, cohorts of n≥3 mice were inoculated with 1×10^6 firefly-luciferase_GFP-transduced Raji tumor cells on day 0, and on day 7 mice were treated with either CAR-transduced or control untransduced T cells. T-cell products consisted of equal proportions of CD4^+ and CD8^+ T cells (1:1 ratio), the total dose was 5×10^6 T cells.
The inventors analyzed the presence of human T cells in bone marrow (BM), spleen (SP) and peripheral blood (PB) of mice, at d1 and d3 after T cell injection using flow cytometry. Live human T cells were identified as 7AAD^−, […] and CD4^+.

[5] = test system: CAR-T cells co-expressing the iCasp suicide gene; assay: Elimination of iCasp+ T cells; assay type: cell-based, human; details: 100 nM dasatinib and dimerizer (dasatinib+/dimerizer+); 24 hours
Procedure: After 24 hours, cells were labeled with anti-CD3 mAB and analyzed by flow cytometry for the presence of iCasp+ T cells.
After 24 hours, cells were labeled with anti-CD3 mAB and analyzed by flow cytometry for the presence of iCasp^+ T cells.

[6] = test system: CAR CD3 zeta at tyrosine 142; assay: Quantitative Western blot of phosphorylation in CD8+ CD19 CAR/4-1BB T cells; assay type: cell-based, human; details: 100 nM dasatinib; co-culture with RCH-ACV
[7] = test system: CD8+ T cells expressing a ROR1 CAR with 4-1BB costimulatory domain; assay: Bioluminescence-based cytotoxicity assay, K562/ROR1 target cells; assay type: cell-based, human
[8] = test system: CD8+ T cells expressing a SLAMF7 CAR with CD28 costimulatory domain; assay: Bioluminescence-based cytotoxicity assay, K562/SLAMF7 target cells; assay type: cell-based, human
[9] = test system: CD19 CAR/4-1BB-T cells; Raji tumor cells; assay: Tumor burden by bioluminescence imaging, intermittent dasatinib (Example 11); assay type: in vivo, NSG mice; details: day 8; CAR-T cells and intermittent dasatinib 5 mg/kg; 1.9e10 without dasatinib
Procedure: as §1
In brief, cohorts of 1-12 mice were inoculated with 1×10^6 firefly-luciferase_GFP-transduced Raji tumor cells on day 0. […]

[10] = test system: CD8+ T cells expressing a CD19 CAR with 4-1BB costimulation; assay: Bioluminescence-based cytotoxicity assay, K562/CD19 target cells; assay type: cell-based, human; details: dasatinib 100 nM added 1 hour after the start of the co-culture; t=10 hours; >90% without dasatinib

SMILES: Cc1nc(Nc2ncc(C(=O)Nc3c(C)cccc3Cl)s2)cc(N2CCN(CCO)CC2)n1 [dasatinib]
- remaining proliferation ([1]; 0.1 μM dasatinib): < 5.6%
- residual proliferation compared to non-dasatinib treated CAR-T cells ([1]; dasatinib ≥3.125 nM): less than 80%
- residual proliferation compared to non-dasatinib treated CAR-T cells ([1]; dasatinib ≥12.5 nM): less than 45%
- residual proliferation compared to non-dasatinib treated CAR-T cells ([1]; dasatinib ≥50 nM): less than 8%
- specific lysis ([2]; 0.1 μM dasatinib at the beginning of the assay, t=10 h): < 1%
- specific lysis of target cells ([2]; dasatinib 25 nM, t=6 h, 53% by non-dasatinib treated): 26%
- specific lysis of target cells ([2]; dasatinib 25 nM, t=12 h, 93% by non-dasatinib treated): 73%
- specific lysis of target cells ([2]; dasatinib 100 nM for 2 hours, then removed, at 10 hours): > 95%
- specific lysis of target cells ([2]; dasatinib 100 nM for 2 hours, then removed, at +4 hours): 77%
- specific lysis of target cells ([2]; dasatinib ≤12.5 nM, t=12 h, 93% by non-dasatinib treated CAR-T cells): > 88%
- specific lysis of target cells ([2]; dasatinib ≥50 nM, t=12 h, 93% by non-dasatinib treated): less than 12%
- specific lysis of target cells ([2]; dasatinib ≥50 nM, up to t=6 h): less than 7%
- specific lysis of target cells ([2]; inhibitor 10 nM, 4-hour assay, 82% by untreated CAR-T cells): 16.1%
- dasatinib concentration in mouse serum ([3]; 5 mg/kg i.p., after each injection, based on known pharmacokinetics [23]): > 50 nM
- window after each injection with dasatinib at that serum concentration ([3]; 5 mg/kg i.p., based on known pharmacokinetics [23]): ~6 h
- total window with dasatinib present in mouse serum at that concentration ([3]; 10 mg/kg i.p. every 6 hours, 6 doses, 3 hours prior to 33 hours after T-cell transfer): 36 h
- dasatinib concentration in mouse serum ([3]; 10 mg/kg i.p. every 6 hours, 6 doses, based on known pharmacokinetics [23]): at least 100 nM
- frequency of human T cells, bone marrow ([4]; day 1, 0.099% CAR/untreated): 0.087%
- frequency of human T cells, peripheral blood ([4]; day 1, […] CAR/untreated): 0.19%
- frequency of CAR-T cells, bone marrow ([4]; day +3, 0.56% CAR/untreated): 0.23%
- frequency of CAR-T cells, peripheral blood ([4]; day +3, 0.61% CAR/untreated): 0.36%
- percentage of iCasp+ cells [5]: 36%
- phosphorylation compared to CAR-T cells co-cultured in the absence of dasatinib [6]: 12.86%
- specific lysis of target cells ([7]; dasatinib 25 nM, up to t=5 h, 73% by non-dasatinib treated): less than 2%
- specific lysis of target cells ([7]; dasatinib 50 nM, any given timepoint, 94% by non-dasatinib treated at t=10 h): less than 2%
- specific lysis of target cells ([8]; dasatinib 20, 40 and 60 nM, t=6 h, 67% by non-dasatinib treated): less than 21%
- residual specific lysis of target cells ([8]; dasatinib 20, 40 and 60 nM, t=12 h, 85% by non-dasatinib treated): less than 35%
- specific lysis of target cells ([8]; dasatinib ≥80 nM, any given time point, 85% by non-dasatinib treated at t=12 h): less than 3%
- average bioluminescence signal [9]: 5.6e9 p/s/cm*2/sr
- specific lysis [10]: 34%
